Reference: US20050074829A1, “Methods for identifying inhibitors of sterol 14-alpha-demethylase” (priority 2003, published 2005)

Legend:
OBT-DM [1] = target: T1, OBT-DM (Arabidopsis thaliana, UniProt Q9SAA9); settings: for wavelength of maximum absorbance in difference spectrum / wavelength of minimum absorbance in difference spectrum: 0.25 mg/ml OBT-DM in 50 mM HEPES pH 7.2, 1 μL of 1 mM inhibitor added, spectrum 300-500 nm
T1 sequence (Q9SAA9 35-488): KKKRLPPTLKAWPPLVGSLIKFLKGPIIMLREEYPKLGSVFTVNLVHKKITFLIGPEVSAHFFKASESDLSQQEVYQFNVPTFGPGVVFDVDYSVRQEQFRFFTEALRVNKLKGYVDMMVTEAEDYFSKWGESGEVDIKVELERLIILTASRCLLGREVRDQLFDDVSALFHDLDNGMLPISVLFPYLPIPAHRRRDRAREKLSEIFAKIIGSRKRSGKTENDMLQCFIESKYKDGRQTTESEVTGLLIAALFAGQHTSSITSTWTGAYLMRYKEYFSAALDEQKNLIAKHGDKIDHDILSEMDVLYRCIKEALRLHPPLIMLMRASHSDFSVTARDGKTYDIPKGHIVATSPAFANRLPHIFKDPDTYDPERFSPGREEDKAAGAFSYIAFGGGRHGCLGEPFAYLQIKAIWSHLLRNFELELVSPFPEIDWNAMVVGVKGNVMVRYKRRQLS
Experimental: An OBT-DM solution (0.25 mg/ml) in 50 mM HEPES, pH 7.2, was placed in a micro-quartz cuvette with 1 cm path length. The solution was used to blank a Hewlett Packard 8453 spectrometer. Then 1 μL of a 1 mM solution of type II inhibitor in 50% (v/v) DMSO ethanol was added and the spectrum was acquired between the 300 and 500 nm region.

OBT-DM [2] = target: T2, OBT-DM (Arabidopsis thaliana, UniProt Q9SAA9); test: Equilibrium inhibitory constant for OBT-DM (no method given); format: binding
T2 sequence (Q9SAA9 1-488): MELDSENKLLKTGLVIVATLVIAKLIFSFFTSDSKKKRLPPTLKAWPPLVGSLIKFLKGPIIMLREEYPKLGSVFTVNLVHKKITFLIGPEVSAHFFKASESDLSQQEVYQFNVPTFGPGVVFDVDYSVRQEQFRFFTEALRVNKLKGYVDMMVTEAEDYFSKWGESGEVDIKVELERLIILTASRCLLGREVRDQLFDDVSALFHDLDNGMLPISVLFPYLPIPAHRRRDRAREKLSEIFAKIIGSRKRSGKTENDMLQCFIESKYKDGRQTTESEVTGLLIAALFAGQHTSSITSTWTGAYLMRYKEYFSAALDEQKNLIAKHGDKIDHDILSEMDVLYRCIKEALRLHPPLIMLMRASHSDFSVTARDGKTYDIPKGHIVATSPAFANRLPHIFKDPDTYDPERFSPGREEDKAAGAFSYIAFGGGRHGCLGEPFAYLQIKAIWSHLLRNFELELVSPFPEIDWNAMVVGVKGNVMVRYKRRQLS

OBT-DM [3] = target: T1, OBT-DM; test: 384-well assay for identification of inhibitors of OBT-DM, read at 413 nm with 432 nm as reference; format: binding; parameters: made in house; host or cells: E. coli Rosetta DE3 pLysS; settings: 10 μM compound, 0.4 mg/ml OBT-DM, 20 min room temperature; negative control wells 0.09-0.12
Experimental: The assay was performed using 0.4 mg/ml OBTDM in 50 mM HEPES, pH 7.2, and 0.01% Tween 20 in all wells plus 10 μM Ketoconazole (positive control) in 50 mM HEPES, pH 7.2, and 0.01% Tween 20 in plate rows A-H; 10 μM compounds numbered 1-24 in 50 mM HEPES, pH 7.2, and 0.01% Tween 20 in row I; and 50 mM HEPES, pH 7.2, and 0.01% Tween 20 in rows K-P (negative control).
The assay was set up in a 384-well plate format and initiated by the addition of 40 μl of 20 μM Ketoconazole (ICN Biomedicals, Inc., Irvine, Calif.) in 50 mM HEPES, pH 7.2, 0.01% Tween 20, to rows A-H to a final concentration of 10 μM (positive control) and 40 μl of 50 mM HEPES, pH 7.2, 0.01% Tween 20, to rows K-P (negative control). Test compounds were added to a concentration of 10 μM in row I by manual addition of 40 μl of a 20 μM solution (compounds assigned numbers from 1-24). Then 40 μl of an 0.8 mg/ml solution of OBT-DM protein in 50 mM HEPES, pH 7.2, 0.01% Tween 20 (from Example 2) was added to all wells to a final concentration of 0.4 mg/ml via multidrop.

OC(Cn1cncn1)(Cn1cncn1)c1ccc(F)cc1F [Compound 2, Fluconazole]
wavelength of maximum absorbance in difference spectrum (OBT-DM [1]): 432 nm | wavelength of minimum absorbance in difference spectrum (OBT-DM [1]): 413 nm

Clc1ccccc1C(c1ccccc1)(c1ccccc1)n1ccnc1 [Compound 4, Clotrimazole]
wavelength of maximum absorbance in difference spectrum (OBT-DM [1]): 432 nm | wavelength of minimum absorbance in difference spectrum (OBT-DM [1]): 413 nm

Nc1nc[nH]n1 [Compound 10, 3-amino-1,2,4-triazole]
Ki (OBT-DM [2]): > 10 µM | absorbance reading at 413 nm using 432 nm as reference wavelength (OBT-DM [3]): negative result

CC(=O)N1CCN(c2ccc(OCC3COC(Cn4ccnc4)(c4ccc(Cl)cc4Cl)O3)cc2)CC1 (stereo not drawn) [Ketoconazole]
wavelength of maximum absorbance in difference spectrum (OBT-DM [1]): 432 nm | wavelength of minimum absorbance in difference spectrum (OBT-DM [1]): 413 nm | magnitude of the type II difference spectrum signal (OBT-DM [1]; comparison among inhibitors studied): maximum magnitude of the signal
